pEC50: −log10 of the molar value.
What was measured:
[1] = system: Herpes simplex virus type 2 (HSV-2); assay: Antiviral activity against HSV-2, viral plaque reduction (ED50); format: cell-based; details: 50 PFU
Method: Infected cells were treated with different concentrations of MMdCyd and the concentration required to reduce viral plaque formation by 50%, i.e. ED50, was determined.
^a ED50 : Concentration required to reduce viral plaque formatio
The antiviral activity of MMdCyd in the presence of H4 dUrd was determined against several strains of HSV-1 and HSV-2.
^a Antiviral assays were carried out using Vero cells. Virus input 50
^b ED50 : Concentration required to reduce viral plaque formatio

[2] = Inhibition of proliferation (MTC), Raji cells; format: cell-based; details: human, highest concentration tested
Method: (§1) Inhibitory effects of MMdCyd on the proliferation of murine and human tumor cells was also investigated. MTC for MMdCyd was greater than 400 μg/ml (highest concentration tested) against Raji, MOLT/4F, MT4, CEM and H-9 (human) and L1210 (murine Leukemia) cells.

[3] = system: Deoxynucleoside Triphosphate (dNTP) Pools in Vero Cells Infected with Herpes Simplex Virus Type 1; assay: Deoxynucleoside triphosphate (dNTP) pools in HSV-1 infected Vero cells; format: cell-based; details: Table 8, HSV-1 KOS infected Vero cells, 10 PFU/cell, treatment 7 hours, ± S.E.
Summary of the method: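 Vero cells infected with HSV-1 KOS at 10 PFU/cell for one hour, then treated for seven hours with dGuo alone or dGuo plus H4 dUrd added right after adsorption. Intracellular dNTP pools then assayed, with untreated Vero cells as control.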

Vero cells = assay: Cytotoxicity (MTC), Vero cells; format: cell-based; details: monkey
Method: (§2) The antiviral activity, ^a cyctotoxicity* and antiviral indices of MMdCyd in the presence of H4 dUrd, dGuo and H4 dUrd+dGuo were determined.
(§3) Minimum cytotoxic concentrations (MTC) for MMdCyd was greater than 1,000 μg/ml for RK-13, HEP-2 and Vero cells.
(§4) ^c MTC = Minimum toxic concentration concentration required to
(§5) produce definite evidence of microscopic toxicity on confluent monolayer

[4] = Cytotoxicity (MTC), Vero cells; format: cell-based; details: monkey
Method: as §2, §3, §4, §5

[5] = system: Herpes simplex virus type 1 (HSV-1); assay: Antiviral activity against HSV-1, viral plaque reduction (ED50); format: cell-based
[6] = system: Deoxynucleoside Triphosphate (dNTP) Pools in Uninfected Vero Cells; assay: Deoxynucleoside triphosphate (dNTP) pools in uninfected (mock-infected) Vero cells; format: cell-based; details: Table 7, uninfected Vero cells, treatment 7 hours, ± S.E.
Summary of the method: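 Vero cells were mock-infected for 1 h, then treated with MMdCyd, H4 dUrd, both together, dGUO ± H4 dUrd, or N-methyl-MMdCyd, with untreated cells as control. dNTP pools were measured, and values are means of at least two assays of triplicate cell cultures.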

[7] = Cytotoxicity (MTC), RK-13 cells; format: cell-based; details: rabbit, read-out: minimum cytotoxic concentration (MTC)
Method: as §3, §4, §5

HSV-1, KOS [8] = assay: HSV-1 KOS infectivity (virus yield) in Vero cells after removal of drugs; format: cell-based, Herpes simplex virus type 1; details: for Virus Infectivity (% of virus control): after drug removal, combination with H4 dUrd 530 μM, 4320 min
Method: Vero cells were infected with HSV-1, KOS strain and then samples of the infected cells were treated with MMdCyd in various quantities and with MMdCyd in various quantities together with 530 μM of H4 dUrd. Cells were washed twice with 0.4 ml of MEM to remove residual drug, overlaid with growth medium and incubated for 72 h. The virus was harvested by two cycles of freezing and thawing. The culture fluid from each treatment was pooled and assayed for virus yield.
^b H4 dUrd 530 μM (125 μg/ml) was added along with MMdCyd.

[9] = Inhibition of proliferation (MTC), CEM cells; format: cell-based; details: human, highest concentration tested
Method: as §1

[10] = Inhibition of proliferation (MTC), H-9 cells; format: cell-based; details: human, highest concentration tested
Method: as §1

HSV-1, KOS [11] = assay: HSV-1 KOS infectivity in Vero cells prior to washing of drugs; format: cell-based, Herpes simplex virus type 1; details: for Virus Infectivity (% of virus control): combination with H4 dUrd 530 μM
Method: Vero cells were infected with HSV-1, KOS strain and then treated with MMdCyd in various quantities, and also with MMdCyd in various quantities together with a constant amount of H4 dUrd. The virus infectivity was observed and the results are given in Table 5 and are shown graphically in FIG. 3.
^a Virus infectivity was scored using following parameters: rounding
of cells, plaque formation and loss of monolayer structure.
^b Concentration of H4 dUrd used was 530 μM (125 μg/ml).

## COCc1cn([C@H]2C[C@H](O)[C@@H](CO)O2)c(=O)nc1N [MMdCyd, 5-methoxymethyl-2'-deoxycytidine]
[1]; HSV-2 333, Vero
  pEC50: 3.76
[1]; HSV-2 MS, Vero
  pEC50: 3.64
[1]; HSV-2 X-265, Vero
  pEC50: 3.89
[2]
  MCC: > 400 µg/mL
[3]
  dATP pool: 25.2 ± 0.49 .rho.moles/10^6 cells
  dCTP pool: 29.6 ± 1.85 .rho.moles/10^6 cells
  dGTP pool: 72.6 ± 2.07 .rho.moles/10^6 cells
  dTTP pool: 1072 ± 11.2 .rho.moles/10^6 cells
Vero cells
  MTC (minimum toxic concentration): > 1,000 μg/ml
[4]
  MCC: > 1000 µg/mL
[5]; HSV-1 76, HEP-2, 50 PFU
  pEC50: 4.66
[5]; HSV-1 (strain cell empty, under NAH), RK-13, 50 PFU
  pEC50: 5.30
[5]; HSV-1 KOS, Vero, 20 PFU, deaminase inhibitor 125 μg/ml, added immediately after infection
  pEC50: 4.77 to 4.92
[6]
  dATP pool: 8.3 ± 0.32 .rho.moles/10^6 cells
  dCTP pool: 14.2 ± 1.30 .rho.moles/10^6 cells
  dGTP pool: 52 ± 1.84 .rho.moles/10^6 cells
  dTTP pool: 44 ± 1.67 .rho.moles/10^6 cells
[7]
  MCC: > 1000 µg/mL
HSV-1, KOS [8]; Example 8
  effectiveness against the virus, conclusion: effective against the virus
HSV-1, KOS [8]; MMdCyd 1.6 μM
  Virus Infectivity (% of virus control): 100 % of virus control
HSV-1, KOS [8]; MMdCyd 3.2 μM
  Virus Infectivity (% of virus control): 99 % of virus control
HSV-1, KOS [8]; MMdCyd 6.4 μM
  Virus Infectivity (% of virus control): 99 % of virus control
HSV-1, KOS [8]; MMdCyd 12.8 μM
  Virus Infectivity (% of virus control): 99 % of virus control
HSV-1, KOS [8]; MMdCyd 25.6 μM
  Virus Infectivity (% of virus control): 99 % of virus control
HSV-1, KOS [8]; MMdCyd 51.2 μM
  Virus Infectivity (% of virus control): 70 % of virus control
HSV-1, KOS [8]; MMdCyd 104 μM
  Virus Infectivity (% of virus control): 55 % of virus control
HSV-1, KOS [8]; MMdCyd 208 μM
  Virus Infectivity (% of virus control): 40 % of virus control
HSV-1, KOS [8]; MMdCyd 416 μM
  Virus Infectivity (% of virus control): 20 % of virus control
HSV-1, KOS [8]; MMdCyd 832 μM
  Virus Infectivity (% of virus control): 10 % of virus control
HSV-1, KOS [8]; less than 26 μM MMdCyd
  virus infectivity after washing of drugs: no decrease in virus infectivity
[9]
  MCC: > 400 µg/mL
[10]
  MCC: > 400 µg/mL
HSV-1, KOS [11]; Example 7
  viral infectivity, conclusion: reduces viral infectivity
HSV-1, KOS [11]; MMdCyd 1.6 μM
  Virus Infectivity (% of virus control): 90 % of virus control
HSV-1, KOS [11]; MMdCyd 3.2 μM
  Virus Infectivity (% of virus control): 80 % of virus control
HSV-1, KOS [11]; MMdCyd 6.4 μM
  Virus Infectivity (% of virus control): 66 % of virus control
HSV-1, KOS [11]; MMdCyd 12.8 μM
  Virus Infectivity (% of virus control): 64 % of virus control
HSV-1, KOS [11]; MMdCyd 25.6 μM
  Virus Infectivity (% of virus control): 45 % of virus control
HSV-1, KOS [11]; MMdCyd 51.2 μM
  Virus Infectivity (% of virus control): 32 % of virus control
HSV-1, KOS [11]; MMdCyd 104 μM
  Virus Infectivity (% of virus control): 20 % of virus control
HSV-1, KOS [11]; MMdCyd 208 μM
  Virus Infectivity (% of virus control): 9 % of virus control
HSV-1, KOS [11]; MMdCyd 416 μM
  Virus Infectivity (% of virus control): 0 % of virus control
HSV-1, KOS [11]; MMdCyd 832 μM
  Virus Infectivity (% of virus control): 0 % of virus control
HSV-1, KOS [11]; combination: MMdCyd >12 μM with H4 dUrd (printed 530 M)
  production of infectious virus particles: significantly decreased

From patent publication US4990499A, “Anti-herpes simplex virus activity of 5-alkoxymethyl-2'-deoxycytidimes and their 5-monophosphates” (priority 1989, dated 1991)
